Where two headings read alike, the source gives them in different places.
Experiments:
[1] = tested on: carrageenin edema of the hind paws of the rat; assay: anti-exudative effect on the carrageenin edema of the hind paws of the rat; type: in vivo, rat (male FW 49); conditions: per os 60 minutes before provocation of edema, measured 3 hours after, dose leading to 35% reduction of the swelling
Procedure: (§1) The compounds were tested for their anti-exudative effects on the kaolin edema and carrageenin edema of the hind paws of the rat, for their ulcerogenicity and for their acute toxicity by oral administration to rats.
(§2) The provocation of the carrageenin edema was effected according to the method of Winter et al. [Proc. Soc. exp. Biol. Med. 111, 544 (1962) ] by subplantary injection of 0.05 ml of a 1% solution of carrageenin in a 0.85% solution of sodium chloride. The test compounds were orally administered 60 minutes before the provocation of the edema.
(§3) For the calculation of the reductive effect on the edema, the values measured three hours after the provocation of the edema were used. All the other details were the same as described above in the case of the kaolin edema.

[2] = tested on: kaolin and carrageenin edema of the hind paws of the rat; assay: average anti-exudative (antiphlogistic) activity against kaolin and carrageenin edema; type: in vivo, rat (male FW 49); conditions: per os, for C only from carrageenin edema
Procedure: The compounds of the present invention were tested for antiphlogistic activity, ulcerogenic activity and acute toxicity in the manner described below, and representative results of these tests are shown in the tables, where
as §1
(§4) The kaolin edema was induced according to the method of Hillebrecht [Arzneimittel-Forsch. 4, 607 (1954) ] by subplantary injection of 0.05 ml of a 10% suspension of kaolin in a 0.85% sodium chloride solution. The measurement of the thickness of the paws was done by using the technique of Doepfner and Cerletti (Int. Arch. Allergy, Immunol. 12, 89 (1958)).
(§5) Male FW 49-rats of an average weight of 120-150 gm were orally treated with the test compounds 30 minutes before inducement of the edema with the aid of a esophageal tube. Five hours after the provocation of the edema the averaged values of the swelling caused in the paws of the rats treated with the test compounds were compared with those values measured on blind-treated control animals. By graphic extrapolation the dose leading to a 35% reduction of the swelling (ED35) was calculated from the percent reduction values measured by administration of different doses.
as §2, §3
(§6) The therapeutic indices, as a measure for the therapeutic usefulness, were calculated by forming the quotient of the ED50 -value for the ulcerogenicity or of th LD50 -value and the ED35 -value derived from the tests for anti-exudative activity against the kaolin and carrageenin edema.

[3] = acute toxicity by oral administration to rats; type: in vivo; conditions: in vivo, po; for selectivity ratio: quotient of LD50 and average anti-exudative ED35, rat, per os, read-out: Therapeutic ratio LD50/aver.ED35; for LD50 at 336 h: rat, per os as trituration in tylose, deaths within 14 days, Litchfield and Wilcoxon
Procedure: as §1
(§7) After oral administration to male and female FW 49-rats (ratio 1:1) having an average body weight of 135 gm, the acute toxicity (LD50) was determined. The substances were administered orally as a trituration in tylose.
(§8) The calculation of the LD50 -values was effected, as far as possible, according to the method of Litchfield and Wilcoxon, based on the percentage of animals which died within 14 days after administration of the different doses.
as §6

[4] = tested on: rat; assay: acute toxicity by oral administration to rats; type: in vivo; conditions: rat, per os, at 1600 mgm/kg, within 14 days
Procedure: as §1, §7, §8, §6

[5] = in vivo; conditions: po; for selectivity ratio: quotient of ulcerogenic ED50 and average antiexudative ED35, rat, per os, read-out: Therapeutic index: Ratio of ulcerogenic activity to antiexudative activity ED50/ED35; for TD50: rat
Procedure: as §1
The tests for ulcerogenic activity were effected on FW 49-rats of both sexes (ratio 1:1) having a body weight of 130 to 150 gm. The animals were given the substances on three subsequent days, once each day, as a trituration in tylose by way of an esophageal tube.
The animals were killed four hours after the last administration; the stomach and duodenal mucosa were investigated for ulcers.
From the percentage of animals showing at least one ulcer after administration of different doses, the ED50 -value was calculated according to the method of Litchfield and Wilcoxon [J. Pharmacol. exp. Therap. 96, 99 (1949) ].
as §6

[6] = tested on: kaolin edema of the hind paws of the rat; assay: anti-exudative effect on the kaolin edema of the hind paws of the rat; type: in vivo, rat (male FW 49); conditions: per os 30 minutes before inducement of edema, swelling at 5 hours, dose leading to 35% reduction of the swelling, graphic extrapolation
Procedure: as §1, §4, §5

[7] = Table I, average of kaolin and carrageenin edema, read-out: Average anti-exudative ED35 per os
[8] = Table II, read-out: Average antiexudative ED35

SMILES | ED35 [1] [mg/kg] | ED35 [2, 7] [mg/kg] | ED35 [2, 8] [mg/kg] | selectivity ratio [3] | LD50 at 336 h [3] [mg/kg] | animals died [4] | selectivity ratio [5] | TD50 [5] [mg/kg] | ED35 [6] [mg/kg]
CC(CCO)c1ccc(-c2ccccc2)c(Cl)c1 (stereo not drawn) [C, 3-(2-chloro-4-biphenylyl)-1-butanol] | 17 | 17 | 17 | > 94.1 | > 1600 | 1 out of 10 | 2.15 | 36.6 | –
CC(CCO)c1ccc(-c2ccccc2)c(F)c1 (stereo not drawn) [A, 3-(2-fluoro-4-biphenylyl)-1-butanol] | 8.5 | 12.8 | 12.8 | 64.7 | 825 | – | 2.39 | 30.5 | 17
CC(CCOC(=O)c1ccncc1)c1ccc(-c2ccccc2)c(F)c1.Cl (stereo not drawn) [B, 3-(2-fluoro-4-biphenylyl)-1-butyl isonicotinate hydrochloride] | 13 | 16.5 | 16.5 | 92.7 | 1530 | – | 3.7 | 61 | 20

Source: patent US3969419A, “3-(2-Halo-4-biphenylyl)-1-butanols and derivatives thereof” (Boehringer Ingelheim GmbH, priority 1973, dated 1976)
